The values below are quoted from earlier work in patent US20050171000A1, “Three dimensional coordinates of melanocortin-4 receptors” (The Procter & Gamble Company, priority 2003, published 2005).

In the series the target is T1, MC4-R (Rattus norvegicus, UniProt P70596).
T1 construct: host or cells: living rats, intraventricular administration (endogenous receptor)
The note with it: intraventricular administration.

T1 sequence (P70596 whole entry): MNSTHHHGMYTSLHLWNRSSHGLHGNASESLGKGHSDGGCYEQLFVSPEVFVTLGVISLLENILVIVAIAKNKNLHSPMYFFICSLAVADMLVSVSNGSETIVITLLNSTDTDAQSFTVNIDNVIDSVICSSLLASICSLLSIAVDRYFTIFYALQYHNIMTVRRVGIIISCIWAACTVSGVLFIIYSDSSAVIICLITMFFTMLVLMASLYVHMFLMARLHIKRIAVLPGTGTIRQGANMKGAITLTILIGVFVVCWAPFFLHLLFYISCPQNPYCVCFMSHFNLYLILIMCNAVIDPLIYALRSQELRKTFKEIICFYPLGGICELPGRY

Consider MTII, for which the food intake entry is on record as “reduced”.
